Experimental data: patent US20240415845A1, “Compositions of Iboga Alkaloids and Methods of Treatment” (priority 2022, published 2024)

Tests used:
[1] = in vivo; cited from earlier work
[2] = orally administered to humans; possibly longer in poor CYP2D6 metabolizers; cited from earlier work
[3] = test system: special operations veterans with combat and/or blast exposure; assay: Functional MRI: resting-state functional connectivity and lag projection analysis; format: in vivo, human
Description: Functional magnetic resonance imaging (fMRI) was performed on the subjects enrolled in the study described in Example 1. Neuroimaging is a branch of medical imaging that focuses on the brain. It utilizes techniques of physics, optics, and mathematics to quantify brain structure and function. […] During resting, subjects are asked to do nothing and the aim is to observe the brain at rest. When the subject is asked to perform a task, the aim is to observe how the brain works in response to the task. Other magnetic resonance based imaging techniques include: anatomical, which measures cortical thickness, area, gyrification, and volume: arterial spin labelling, which quantitatively measures tissue perfusion, cerebral blood flow, where perfusion refers to the delivery of oxygen and nutrients to tissue by means of blood flow: and, diffusion tensor imaging, which measures diffusion of water through white natter, such as neural fiber tracts. fMRI can provide a series of images that form a film, as opposed to a single image obtained in MRI.
The human brain is a series of well-organized and optimized series of efficient networks. […] The functional connectivity networks evaluated in a region of interest in the brain included those identified in Table 2-1 of Example 2.
fMRI data was also analyzed to inspect activity patterns as a function of time. […]

For `CCC1CC2CC3c4[nH]c5ccc(OC)cc5c4CCN(C2)C13` (stereo not shown) [ibogaine, Ibogaine], the “people who may suffer from cardiac arrest when treated” value [1] is listed as “Approximately 1 in 300”, the half-life [2] is listed as “about 7.5 hours” and the “lag projection of BOLD fMRI in left orbitofrontal gyrus and inferior frontal gyrus” value ([3]; baseline vs about four days post treatment, paired T-test, fwec p<0.001) is listed as “relative slowing”. The “functional connection pairs in the brain networks reorganized (resting state functional connectivity)” value ([3]; within a few days after treatment, persisted to one-month post treatment) was 22.
